From US20200347389A1, “COMPOSITIONS AND METHODS FOR GENERATING DIVERSITY AT TARGETED NUCLEIC ACID SEQUENCES” (MONSANTO TECHNOLOGY LLC, priority 2019, published 2020)

Legend:
DNA = conditions: D832A/E925A (dLbCpf1); D10A/H840A (dSpCas9); cited from earlier work
rpoB gene [1] = experiment: Deep sequencing of the rpoB fragment from Rif^r colonies; format: cell-based, Escherichia coli; conditions: 0.1% and 1% EMS, untargeted dCas9
Procedure: Ninety-six Rif^r colonies from 0.1% and 1% EMS treatment assays were picked and colony PCR was carried out to amplify the […] rpoB fragment. Approximately 20 μL PCRs reactions were carried out in 96 well plates, using forward and reverse primers comprising Illumina barcoded adaptors and designed to amplify a […] rpoB fragment associated with mutations conferring the Rif^r phenotype. The success of the reactions was checked by running ˜5 μL of 8-12 samples picked from across the 96 wells and running on e-gels. […] After obtaining the raw reads, adaptor sequences were removed with the program Cutadapt (Martin, EMBnet.journal, 2011, [S1], v17, n1, p. pp. 10-12, ISSN 2226-6089) and low quality reads are filtered with Trimmomatic (Version 0.36) (Bolger et al., Bioinformatics, 30:2114 (2014)). The program ‘glsearch’ (Pearson, Methods Mol Biol., 132:185-219 (2000)), was used to map reads to the reference rpoB sequence and to detect substitutions and small INDELs. […]
Individual colonies as well as plate scrapes (pooled colonies) were sequenced. […] Quality reads were obtained from 71 colonies for treatment 1, 92 colonies for treatment 2, and 89 colonies for treatment 3. Quality reads were also obtained from the Plate scrape samples.

[2] = EMS-mutated populations; cited from earlier work
rpoB gene [3] = experiment: rpoB/Rif^r assay: EMS mutagenesis of E. coli KL16 carrying pNUC-dSpCas9 + pGUIDE-Sp-Zm7.1; format: cell-based, Escherichia coli; conditions: for Rif^r CFUs in 5 μL (average) / Rif^r CFUs in 100 μL (average): one hour, cells with pNUC-dCas9 + pGUIDE-Sp-Zm7.1
Description: This example describes the Escherichia coli rpoB gene and Rifampicin-resistant (Rif^r) mutations that map to rpoB as a system to characterize mutation rates and mutation types induced by chemical mutagens.
The E. coli K12 (strain MG1655) rpoB gene (SEQ ID NO: 1) encodes a subunit of the RNA polymerase complex (SEQ ID NO: 2) and is the target of the antibiotic rifampicin, a bacterial transcription inhibitor. A unique feature of the rpoB gene is that at least 69 nucleotide substitutions in 24 amino acid codons can confer the Rif^r phenotype to E. coli. This makes rpoB a useful target for screening and analyzing the type and frequency of nucleotide changes (e.g., additions, deletions, and substitutions induced by mutagens (reviewed in Garibyan et al., 2003, DNA Repair, 2:593-608). Furthermore, a majority of mutations that confer Rifampicin resistance (>90%) map to a relatively small, 268-nucleotide long, region of the rpoB gene. This allows PCR amplification with a single pair of oligonucleotide primers, followed by sequencing, which permits rapid analysis of numerous potential mutations. The aforementioned 268-bp fragment of the E. coli K12 rpoB gene is set forth as SEQ ID NO: 3. […] However, mutants comprising short, in-frame deletions (up to five amino acids) have been found, but at a much lower frequency (see, for example, Jin and Gross, J Mol Biol. 202:45-58 (1988)).
To test the rate and spectrum of mutations induced by EMS on rpoB, an experiment was performed where E. coli KL16 cells were co-transformed with pNUC-dSpCas9 and pGUIDE-Sp-Zm7.1; treated with 0.1% or 1% EMS. Resulting Rif^r mutations were selected and scored. The rpoB gene fragment (SEQ ID NO: 3) was sequenced from each colony and the predominant mutations were identified. As noted above in Example 2, pGUIDE-Sp-Zm7.1 is not expected to target the E. coli chromosome, and thus serves as a negative control.
Approximately 0.7 μL of pNUC-dSpCas9 and pGUIDE-Sp-Zm7.1 plasmid DNAs (approximate concentrations of 50 to 150 ng/μL) were added to 30 μL aliquots of electrocompetent E. coli KL16 cells. The cells and DNA were electroporated in 1 mm gap cuvettes, using Bio-Rad GenePulser II with settings described above in Example 2. Approximately 1 mL of S.O.C. medium was added to the cuvettes, mixed, transferred to culture tubes, and shaken in a 37° C. incubator shaker for ˜90 min at 280 RPM. Approximately 20 μL of the mix was diluted with 380 μL of S.O.C. medium (1:20 dilution), 100 μL was plated on LB plates containing +25 μg/mL Cm, +50 μg/mL Spect antibiotics followed by overnight incubation at 37° C. After overnight growth, the plates contained ˜100-400 uniform single colonies. Four to five single colonies from the plates were picked and mixed in 2.5 mL liquid LB media containing +25 μg/mL Cm, +50 μg/mL Spect. The culture was grown overnight at 37° C. with shaking at 280 RPM. The following day the saturated overnight culture was diluted into 3 mL of fresh LB +25 μg/mL Cm, +50 μg/mL Spect at a 1:20 ratio. After growth for ˜3 hours shaking (280 RPM) at 37° C., the culture was in exponential growth with an A600 absorbance measurement of ˜1. The culture was split into three 1 mL aliquots in Eppendorf tubes, then spun at full speed for one minute. The LB supernatant was removed and the small pellets were resuspended by gentle pipetting into 1 mL PBS and transferred to culture tubes.
Approximately 1 μL of EMS (Sigma M0880) was added to the first tube (0.1% EMS, final conc.) and approximately 10 μL of EMS was added to the second tube (1% EMS, final conc.). The third tube received no EMS (0% EMS). After mixing, the tubes were incubated at 37° C. with shaking for one hour. The 1 mL cultures were transferred back into Eppendorf tubes and spun at full speed for 1 minute. The pellets were washed once with PBS to remove EMS and resuspended in 1 mL LB+25 μg/mL Cm, +50 μg/mL Spect. […]

rpoB gene [4] = conditions: at eight sites; Garibyan et al.; cited from earlier work

Molecule	DNA cleavage activity (DNA)	colonies with an in-frame 15 nucleotide deletion (rpoB gene [1])	mutations previously described as inducing the Rif^r phenotype identified in the EMS screen (rpoB gene [1])	modifications that are G:C→A:T base pair transitions [2]	increase of mutation rate relative to the spontaneous mutation rate (rpoB gene [3]; 0.1% EMS) [×]	Rif^r CFUs in 5 μL (average) (rpoB gene [3]; 0.1% EMS) [CFUs]	Rif^r CFUs in 100 μL (average) (rpoB gene [3]; 0.1% EMS) [CFUs]	increase of mutation rate relative to the spontaneous mutation rate (rpoB gene [3]; 1.0% EMS) [×]	Rif^r CFUs in 5 μL (average) (rpoB gene [3]; 1% EMS) [CFUs]	Rif^r CFUs in 100 μL (average) (rpoB gene [3]; 1% EMS)	mutations identified within the 268-bp stretch of rpoB, all G:C→A:T transitions (rpoB gene [4])
dSpCas9: dead SpCas9 with D10A and H840A substitutions (SEQ ID NO: 22)	complete abolishment of DNA cleavage activity										
CCOS(C)(=O)=O [EMS, ethyl methanesulfonate]		Four	ten of the thirteen	70% to 99%	~40	18	280	~2600	1036	>10^4 CFUs	40
